The values that follow come from ChEMBL document CHEMBL1155634, “New butenolides from two marine streptomycetes” (J Nat Prod, 2000).

Structures are written as SMILES. Active and inactive are the calls of the source. No cut-off for these calls is given here.

Holding throughout (assay type): functional, organism-based
The subject of assay [1] is Streptomyces viridochromogenes. Briefly: Antibacterial activity against Streptomyces viridochromogenes Tu57 assessed as inhibition of spore formation.
The test system of a further assay is Escherichia coli. Briefly: Antibacterial activity against Escherichia coli.
The next assay concerns Rhizomucor miehei. Briefly: Antifungal activity against Mucor miehei Tu284.
A further assay relates to Candida albicans. Briefly: Antifungal activity against Candida albicans.
Another assay has as its system Staphylococcus aureus. Put plainly: Antibacterial activity against Staphylococcus aureus.
For assay [2], the system named is Streptomyces viridochromogenes. Put plainly: Antibacterial activity against Streptomyces viridochromogenes Tu57.

Turning to `CCC(C)(O)CCCCC[C@H]1C=CC(=O)O1` (some centres undefined), the result in assay [1] was inactive.

As for `CC(O)C(C)CCCCC[C@H]1C=CC(=O)O1` (stereo in doubt; 3), the outcome in assay [1] was inactive.

As to `CC(O)C(C)CCCCC[C@H]1C=CC(=O)O1` (stereo in doubt; 2), the result in assay [1] was inactive.

As to `CC(=O)C(C)CCCCC[C@H]1C=CC(=O)O1` (some centres undefined), the result (in the assay on Escherichia coli; in assay [1]; in the assay with Rhizomucor miehei; in the assay with Candida albicans; with Staphylococcus aureus; in assay [2]) was inactive.
